Converted amounts (≈) assume the structure as drawn. “Also recorded” adds a separate entry of the source. Like-named read-outs stand apart in the source and are kept apart here. Where only a bound is given, the exact number is not on record here.

What all share (type): cell-based
The subject of test [1] is panel of seven cancer cell lines. The experiment in a line: In vitro cytotoxicity, MTT assay, whole panel. The following applies: for antiproliferative / anticancer activity (in words): panel of cancer cell lines; for IC50: panel of seven different cancer cell lines, read-out: IC50 values, range over the panel. On the procedure: (§1) In vitro cytotoxicity studies (data expressed in the form of IC50 values) were performed over a concentration range between 1 and 37 µg/mL on a panel of seven cancer cell lines including human endocervical adenocarcinoma (KB3.1), mouse fibroblasts (L929), lung cancer (A549), squamous cancer (A431), prostate cancer (PC-3), breast cancer (MCF-7), and ovary cancer (SK-OV-3) using the MTT assay as previously reported.

The test system of test [2] is Bacillus subtilis [DSM 10]. Kind of test: MIC, 96-well plate serial dilution assay. To be noted: for MIC: DSM10, concentration range 67 to 0.5 µg/mL.
Test [3] has as its system Mycobacterium smegmatis [ATCC 700084]. The experiment in a line: MIC, 96-well plate serial dilution assay.
Test [4] relates to Rhodotorula glutinis [DSM 10134]. Kind of test: MIC, 96-well plate serial dilution assay.
Test [5] relates to Staphylococcus aureus [DSM 346]. The experiment in a line: MIC, 96-well plate serial dilution assay.
The subject of test [6] is Mucor hiemalis [DSM 2656]. Kind of test: MIC, 96-well plate serial dilution assay.
For the next test, the system named is squamous cancer (A431). The experiment in a line: In vitro cytotoxicity, MTT assay. The following applies: Homo sapiens, A-431. The protocol: as §1
Another test deals with ovary cancer (SK-OV-3). The experiment in a line: In vitro cytotoxicity, MTT assay. The following applies: Homo sapiens. The protocol: as §1
On the technique in general: Formazan colour is commonly taken as a measure of viable cells.

A further test relates to prostate cancer (PC-3). Kind of test: In vitro cytotoxicity, MTT assay. To be noted: for sensitivity of PC-3 (in words): PC-3 (prostate cancer). The protocol:
as §1

Another test relates to mouse fibroblasts (L929). Kind of test: In vitro cytotoxicity, MTT assay. On the procedure:
as §1

A further test relates to lung cancer (A549). The experiment in a line: In vitro cytotoxicity, MTT assay. The following applies: Homo sapiens. On the procedure: as §1
For test [7], the system named is human endocervical adenocarcinoma (KB3.1). The experiment in a line: In vitro cytotoxicity, MTT assay. The following applies: KB 3-1, KB3.1, MTT. The protocol:
as §1

In another test the test system is breast cancer (MCF-7). The experiment in a line: In vitro cytotoxicity, MTT assay. To be noted: Homo sapiens, MCF7. On the procedure: as §1
Test [8] has as its system Candida albicans [DSM 1665]. Kind of test: MIC, 96-well plate serial dilution assay.
Test [9] has as its system remaining strains (S. aureus, M. smegmatis, M. hiemalis, C. albicans, R. glutinis). Kind of test: MIC serial dilution assay, strains other than Bacillus subtilis. The following applies: all tested strains except Bacillus subtilis.
Setting [10] is: Mycolicibacterium smegmatis, ATCC700084, concentration range 67 to 0.5 µg/mL, read-out: MIC.
The mark [11] stands for this setting: DSM10134, concentration range 67 to 0.5 µg/mL, read-out: MIC.
[12] abbreviates: DSM346, concentration range 67 to 0.5 µg/mL, read-out: MIC.
The mark [13] stands for this setting: DSM2656, concentration range 67 to 0.5 µg/mL, read-out: MIC.
[14] abbreviates: DSM1665, concentration range 67 to 0.5 µg/mL, read-out: MIC.
[15] abbreviates: concentration range 67 to 0.5 µg/mL.

For orientation: IC50 means the concentration that gives 50% inhibition. A word on the MIC: it is the lowest concentration found to suppress growth. In the case of `Cc1c(O)c(O)c(O)c2c1C(=O)OC2` [Compound 5, epicoccone], the “antiproliferative / anticancer activity (in words)” value in [1] is “active against all tested cell lines; also recorded: promising anticancer activities”. Also, the IC50 in test [1] is 1.3 to 12 µM; in the test with squamous cancer (A431) (A431, MTT, read-out: IC50) it was 7.3 µM; in the test with ovary cancer (SK-OV-3) (SKOV-3, MTT, read-out: IC50) it was 8.2 µM; with prostate cancer (PC-3) (PC-3, MTT, read-out: IC50) it was 8 µM; with mouse fibroblasts (L929), 7.5 µM; with lung cancer (A549) (A549, MTT, read-out: IC50), 6.8 µM. Also, the IC50 in test [7] is 6.1 µM; with breast cancer (MCF-7) (MCF-7, MTT, read-out: IC50), 3800 nM. In addition, the MIC in test [2], in test [3] (setting [10]), in test [4] (setting [11]), in test [5] (setting [12]), in test [6] (setting [13]) and in [8] (setting [14]) was > 67 µg/mL in each case.
For the compound `Cc1c(O)c(O)c(O)c(C=O)c1-c1cc2c(C=O)c(C)c(O)c(O)c2o1` [Compound 4, epicoccolide B], the “antiproliferative / anticancer activity (in words)” value in [1] is listed as “weak anticancer activity”. The MIC in test [2] was 66.6 µg/mL (≈ 186 µM); in test [3] (setting [10]) it was > 67 µg/mL; in test [4] (setting [11]), > 67 µg/mL; in test [5] (setting [12]) it was > 67 µg/mL; in test [6] (setting [13]), > 67 µg/mL; in test [8] (setting [14]), > 67 µg/mL. Moreover, the IC50 in the test with mouse fibroblasts (L929) was determined as 19 µM; in test [7], 21 µM.
For the compound `C[C@@H]1[C@H](O)[C@@H](C)/C=C/C=C/CC/C=C/C=C/C=C/C=C/C(O[C@H]2O[C@H](C)[C@@H](O)[C@H](N)[C@@H]2O)CC2O[C@](O)(CC(O)C(O)CCC(O)CC(O)CC(O)CC(=O)O[C@H]1C)CC(O)C2C(=O)O` (stereo partly shown) [Nystatin, reference compound], the MIC in [4] (setting [15]), in [6] (setting [15]) and in [8] (setting [15]) was 2.1^N µg/ml each time.
Turning to `CN(C)[C@@H]1C(O)=C(C(N)=O)C(=O)[C@@]2(O)C(O)=C3C(=O)c4c(O)cccc4[C@@](C)(O)[C@H]3[C@H](O)[C@@H]12` [Oxytetracycline, reference compound], the MIC in test [2] was 16.6 µg/mL (≈ 36.1 µM).
In the case of `COC1OC(C2OCc3c(C)c(O)c(O)c(O)c32)c2c(O)c(O)c(O)c(C)c21` (stereo not shown) [Compound 2, flavimycin C], the “antiproliferative / anticancer activity (in words)” value in test [1] is reported as “highest potency; also recorded: promising anticancer activities”. Further, the IC50 in [1] was 1.3 to 12 µM; in the test on squamous cancer (A431) (A431, MTT, read-out: IC50), 8.2 µM; in the test with ovary cancer (SK-OV-3) (SKOV-3, MTT, read-out: IC50) it was 17 µM; with prostate cancer (PC-3) (PC-3, MTT, read-out: IC50), > 100 µM; in the test with mouse fibroblasts (L929), 6.7 µM; with lung cancer (A549) (A549, MTT, read-out: IC50) it was 9.2 µM. In addition, the IC50 in test [7] was found to be 7.8 µM; in the test with breast cancer (MCF-7) (MCF-7, MTT, read-out: IC50), 2700 nM. Also, in test [2], the “antimicrobial activity against Bacillus subtilis (in words)” value is reported as “moderate activity; also recorded: moderate antimicrobial activities”. Besides, in [2], the “potency against Bacillus relative to the standard oxytetracycline” value is “almost half”. In addition, the MIC in [2] is 33.3 µg/mL (≈ 84.9 µM); in test [3] (setting [10]), > 67 µg/mL; in test [4] (setting [11]), > 67 µg/mL; in test [5] (setting [12]) it was > 67 µg/mL; in test [6] (setting [13]), > 67 µg/mL; in test [8] (setting [14]), > 67 µg/mL. For the same compound, the “sensitivity of PC-3 (in words)” value with prostate cancer (PC-3) is listed as “insensitive”. Moreover, the “antimicrobial activity against the remaining strains (in words)” value in test [9] is given as “no potential activity”.
As for `Cc1c2c(c3c(C)c(O)c(C(=O)O)c(O)c3c1O)COC2` [Compound 1, epicoccofuran A], the “antiproliferative / anticancer activity (in words)” value in test [1] is given as “weak anticancer activity”. Moreover, the “antimicrobial activity against Bacillus subtilis (in words)” value in test [2] is “moderate activity; also recorded: moderate antimicrobial activities”. Moreover, the “potency against Bacillus relative to the standard oxytetracycline” value in [2] is listed as “almost half”. Besides, the MIC was 33.3 µg/mL (≈ 115 µM) in test [2]; > 67 µg/mL in test [3] (setting [10]); > 67 µg/mL in test [4] (setting [11]); > 67 µg/mL in test [5] (setting [12]); > 67 µg/mL in test [6] (setting [13]); > 67 µg/mL in test [8] (setting [14]). For the same compound, the IC50 in the test on mouse fibroblasts (L929) amounted to 12 µM; in [7], 16 µM. The “antimicrobial activity against the remaining strains (in words)” value in [9] is on record as “no potential activity”.
On to `C/C(=C\c1csc(C)n1)[C@@H]1C[C@@H]2O[C@]2(C)CCC[C@H](C)[C@H](O)[C@@H](C)C(=O)C(C)(C)[C@@H](O)CC(=O)O1` [Epothilone B, reference compound], for which the IC50 came to 6e-05 µM in the test on squamous cancer (A431); 9e-05 µM with ovary cancer (SK-OV-3); 9e-05 µM in the test on prostate cancer (PC-3); 5e-05 µM with lung cancer (A549) (A549); 0.07 nM in the test with breast cancer (MCF-7).
Regarding Gentamycin [reference compound], in test [5] (setting [15]), the MIC was 0.21^G µg/ml.
As for `Cc1c(O)c(O)c(O)c2c1COC2` [Compound 6, 4,5,6-trihydroxy-7-methyl-1,3-dihydroisobenzofuran], the “antiproliferative / anticancer activity (in words)” value in test [1] is “highest potency; also recorded: promising anticancer activities”. The IC50 in [1] is 1.3 to 12 µM; in the test with squamous cancer (A431) (A431, MTT, read-out: IC50), 7.3 µM; in the test with ovary cancer (SK-OV-3) (SKOV-3, MTT, read-out: IC50), 7.8 µM; with prostate cancer (PC-3) (PC-3, MTT, read-out: IC50) it was > 100 µM; with mouse fibroblasts (L929), 2.8 µM; with lung cancer (A549) (A549, MTT, read-out: IC50), 6.3 µM. Besides, the IC50 worked out at 3.4 µM in [7] and 1300 nM with breast cancer (MCF-7) (MCF-7, MTT, read-out: IC50). Also, the MIC in test [2], in test [3] (setting [10]), in test [4] (setting [11]), in test [5] (setting [12]), in test [6] (setting [13]) and in test [8] (setting [14]) was > 67 µg/mL in each case. For the same compound, the “sensitivity of PC-3 (in words)” value in the test with prostate cancer (PC-3) is “insensitive”.
For the compound `Cc1c(O)c(O)c2c(c1C=O)[C@@H]1O[C@H](O2)c2c(C)c(O)c(O)c(O)c2C1=O` [Compound 3, epicocconigrone A], in test [1], the “antiproliferative / anticancer activity (in words)” value is “active against all tested cell lines; also recorded: promising anticancer activities”. The IC50 is 1.3 to 12 µM in test [1]; 7.8 µM with squamous cancer (A431) (A431, MTT, read-out: IC50); 12 µM with ovary cancer (SK-OV-3) (SKOV-3, MTT, read-out: IC50); 8 µM in the test on prostate cancer (PC-3) (PC-3, MTT, read-out: IC50); 14 µM in the test with mouse fibroblasts (L929); 10 µM with lung cancer (A549) (A549, MTT, read-out: IC50). Moreover, the IC50 was found to be 2.7 µM in test [7] and 2400 nM with breast cancer (MCF-7) (MCF-7, MTT, read-out: IC50). For the same compound, the MIC was 66.6 µg/mL (≈ 178 µM) in [2]; > 67 µg/mL in [3] (setting [10]); > 67 µg/mL in test [4] (setting [11]); > 67 µg/mL in test [5] (setting [12]); > 67 µg/mL in test [6] (setting [13]); > 67 µg/mL in test [8] (setting [14]).
`NC[C@H]1O[C@H](O[C@H]2[C@H](O)[C@@H](O[C@H]3O[C@H](CO)[C@@H](O)[C@H](N)[C@H]3O)[C@H](N)C[C@@H]2N)[C@H](O)[C@@H](O)[C@@H]1O` [Kanamycin, reference compound]: the MIC in test [3] (setting [15]) is on record as 1.7^ K µg/ml.
